Assays:
U251 GBM cells = experiment: cell number by flow cytometry, U251 GBM cells; assay type: cell-based; settings: input 5000
Protocol: Cell viability and survival was measured using the MTT assay, a colorimetric assay for assessing cell metabolic activity set up under conditions where the absorption reflects the number of viable cells present (Table 21 and 22) and expressed as relative absorption at 570 nm. Early apoptosis was measured using VYBRANT DyeCycle Violet stain (Molecular Probes), a DNA-selective, cell membrane-permeant dye that can distinguish the compacted state of the nuclear chromatin in apoptotic cells as determined by flow cytometry and presented as the percent of cells that are apoptotic (Table 23 and 24). The actual number of cells following treatment with TAT-ICD or TAT alone (Table 25) was determined using flow cytometry compared to an input of 5,000 cells at time zero. To confirm apoptosis the TUNEL labeling assay, which detects DNA strand breaks in apoptotic cells by fluorescence microscopy, was also used to examine U251 cells treated with the PTPRG WD. Briefly, the assay used an optimized terminal transferase ([…]) to label 3′OH ends in genomic DNA with TMR-dUTP, thus allowing the measurement and quantification of cell death by apoptosis. U251 cells were pretreated for 1, 3 and 6 hours with 50 μM P1-WD. Then cells were fixed and permeabilized, incubated with TUNEL reaction mixture for 1 h at RT, and then stained with DAPI (for nuclei detection) and with Alexa670-Phalloidin (to detect actin in cell membranes). After the staining steps, cells were visualized with a confocal microscope.

bEnd3 endothelial cells = experiment: MTT assay, bEnd3 endothelial cells; assay type: cell-based
DBTRG GBM cells [1] = experiment: MTT survival assay, DBTRG GBM cells; assay type: cell-based, human
Protocol: (§1) The DBTRG-O5MG (Denver Brain Tumor Research Group 05) cell line was established from tissue from a patient with glioblastoma multiforme who had been treated with local brain irradiation and multi drug chemotherapy (Kruse C A, et al. 1992 In vitro Cell Dev Biol, 28A(9-10):609-14). U87 is a commonly studied and thoroughly characterized grade IV glioma cell line derived from malignant glioma (Clark M J, et al, 2010 Plos Genet. 6(1):e1000832.). T98G is a glioblastoma multiforme cell line extracted from a person (Stein G H, 1979, J. Cell Physiol, 99(1):43-54). Proliferation and survival were assessed following TAT-ICD or control peptide (Table 29) or the P1-WD or control peptide treatment using the MTT assay as described above. Data are relative absorption; mean and standard deviation.

DBTRG GBM cells [2] = experiment: VYBRANT early apoptosis, DBTRG GBM cells; assay type: cell-based, human; settings: 0.5 μM
U87 GBM cells [3] = experiment: MTT survival assay, U87 GBM cells; assay type: cell-based
Protocol: as §1

U87 GBM cells [4] = experiment: VYBRANT apoptosis, U87 GBM cells; assay type: cell-based; settings: 0.5 μM
human neutrophils = experiment: fMLP-triggered adhesion of neutrophils (PMNs) to ICAM-1; assay type: cell-based; settings: mean ± SD
Protocol: We investigated the functional effect of PTPRG activation on integrin activation and mediated adhesion by chemoattractants in human primary monocytes and PMNs in a static and flow adhesion assays. Briefly, human primary monocytes or polymorphonuclear cells were suspended at 5×10^6/ml in standard adhesion buffer. Adhesion assays were performed on 18-well glass slides coated with 1 mg/ml human fibrinogen or with 1 μg/ml human ICAM-1 in PBS; 20 μl of cell suspension were added to the coated wells and stimulated for 1 min at 37° C. with 5 μl of fMLP, 0.05 μM final concentration. After rapid washing, adherent cells were fixed in ice-cold 1.5% glutaraldehyde in PBS, and still images of adherent cells in 0.2 mm^2 fields were acquired al 20× phase contrast magnification, NA 0.40, with a charge-coupled device camera (ICD-42B; Ikegami) connected to an inverted microscope (IX50; Olympus). Image acquisition and computer-assisted enumeration of adherent cells were performed with ImageJ (National Institute of Health).
Chemokine-triggered adhesion of human neutrophils was measured similarly. Freshly isolated, non-activated human neutrophils incubated with buffer or increasing concentrations of TAT-ICD and then spotted onto ICAM-1-coated slides. Integrin-mediated adhesion was triggered using 50 nM fMLP and the adherent cells were fixed and enumerated as described for the lymphocytes above.

“TAT (GRKKRRQRRRPPQ; listed as Homo sapiens) [reference compound]” was tested, and the number of cells (U251 GBM cells; TAT 50 μM, 6 hours, Control 5000) was 4700 cells per standard volume of medium, the number of cells (U251 GBM cells; TAT 50 μM, 9 hours, Control 10000) was 7000 cells per standard volume of medium and the number of cells (U251 GBM cells; TAT 50 μM, 24 hours, Control 10000) was 11385 cells per standard volume of medium. For the same substance, the “mean absorbance in the MTT assay” value (bEnd3 endothelial cells; 0.1 uM, 24 hours, CTRL 352) was 354, the “mean absorbance in the MTT assay” value (bEnd3 endothelial cells; 0.1 uM, 48 hours, CTRL 523) was 503 and the “mean absorbance in the MTT assay” value (bEnd3 endothelial cells; 0.25 uM, 24 hours, CTRL 352) was 338. For the same substance, the “mean absorbance in the MTT assay” value (bEnd3 endothelial cells; 0.25 uM, 48 hours, CTRL 523) was 540, the “mean absorbance in the MTT assay” value (bEnd3 endothelial cells; 0.5 uM, 24 hours, CTRL 352) was 328 and the “mean absorbance in the MTT assay” value (bEnd3 endothelial cells; 0.5 uM, 48 hours, CTRL 523) was 528. It also gave an MTT relative absorption (DBTRG GBM cells [1]; 0.3 μM, 24 hours, Control 941) of 711, an MTT relative absorption (DBTRG GBM cells [1]; 0.3 μM, 48 hours, Control 1274) of 1031 and an MTT relative absorption (DBTRG GBM cells [1]; 0.3 μM, 72 hours, Control 1667) of 1583. The MTT relative absorption (DBTRG GBM cells [1]; 0.5 μM, 24 hours, Control 941) was 826, the MTT relative absorption (DBTRG GBM cells [1]; 0.5 μM, 48 hours, Control 1274) was 1061 and the MTT relative absorption (DBTRG GBM cells [1]; 0.5 μM, 72 hours, Control 1667) was 1591. For the same substance, the MTT relative absorption (DBTRG GBM cells [1]; 1.0 μM, 24 hours, Control 941) was 792, the MTT relative absorption (DBTRG GBM cells [1]; 1.0 μM, 48 hours, Control 1274) was 1005 and the MTT relative absorption (DBTRG GBM cells [1]; 1.0 μM, 72 hours, Control 1667) was 1275. For the same substance, the “percent of apoptotic cells by flow cytometry” value (“percent … by flow cytometry” for short) (DBTRG GBM cells [2]; 1 h, Control 14) was 10%, the “percent … by flow cytometry” value (DBTRG GBM cells [2]; 3 h, Control 16) was 10% and the “percent … by flow cytometry” value (DBTRG GBM cells [2]; 6 h, Control 33) was 7%. For the same substance, the MTT relative absorption (U87 GBM cells [3]; 0.1 μM, 24 hours, CTRL 1200) was 1200, the MTT relative absorption (U87 GBM cells [3]; 0.1 μM, 48 hours, CTRL 1200) was 1018 and the MTT relative absorption (U87 GBM cells [3]; 0.1 μM, 72 hours, CTRL 1336) was 1343. For the same substance, the MTT relative absorption (U87 GBM cells [3]; 0.25 μM, 24 hours, CTRL 1200) was 1195, the MTT relative absorption (U87 GBM cells [3]; 0.25 μM, 48 hours, CTRL 1200) was 950 and the MTT relative absorption (U87 GBM cells [3]; 0.25 μM, 72 hours, CTRL 1336) was 1200. The MTT relative absorption (U87 GBM cells [3]; 0.5 μM, 24 hours, CTRL 1200) was 1160, the MTT relative absorption (U87 GBM cells [3]; 0.5 μM, 48 hours, CTRL 1200) was 900 and the MTT relative absorption (U87 GBM cells [3]; 0.5 μM, 72 hours, CTRL 1336) was 1235. For the same substance, the “percent of apoptotic cells” value (U87 GBM cells [4]; 1 hour, Control 10) was 20%, the “percent of apoptotic cells” value (U87 GBM cells [4]; 3 hours, Control 3) was 10% and the “percent of apoptotic cells” value (U87 GBM cells [4]; 6 hours, Control 14) was 20%.
“TAT-ICD: fusion recombinant protein SEQ ID 5: PTPRG intracellular domain aa 797-1445 fused to 13 aa TAT sequence” was tested, and the number of cells (U251 GBM cells; TAT-ICD 0.5 μM, 6 hours, Control 5000) was 4676 cells per standard volume of medium, the number of cells (U251 GBM cells; TAT-ICD 0.5 μM, 9 hours, Control 10000) was 5400 cells per standard volume of medium and the number of cells (U251 GBM cells; TAT-ICD 0.5 μM, 24 hours, Control 10000) was 6094 cells per standard volume of medium. The number of cells (U251 GBM cells; TAT-ICD 1 μM, 6 hours, Control 5000) was 2688 cells per standard volume of medium, the number of cells (U251 GBM cells; TAT-ICD 1 μM, 9 hours, Control 10000) was 5434 cells per standard volume of medium and the number of cells (U251 GBM cells; TAT-ICD 1 μM, 24 hours, Control 10000) was 5300 cells per standard volume of medium. For the same substance, the number of cells (U251 GBM cells; TAT-ICD 2 μM, 6 hours, Control 5000) was 3943 cells per standard volume of medium, the number of cells (U251 GBM cells; TAT-ICD 2 μM, 9 hours, Control 10000) was 3016 cells per standard volume of medium and the number of cells (U251 GBM cells; TAT-ICD 2 μM, 24 hours, Control 10000) was 4500 cells per standard volume of medium. For the same substance, the “mean absorbance in the MTT assay” value (bEnd3 endothelial cells; 0.1 uM, 24 hours, CTRL 352) was 373, the “mean absorbance in the MTT assay” value (bEnd3 endothelial cells; 0.1 uM, 48 hours, CTRL 523) was 513 and the “mean absorbance in the MTT assay” value (bEnd3 endothelial cells; 0.25 uM, 24 hours, CTRL 352) was 378. For the same substance, the “mean absorbance in the MTT assay” value (bEnd3 endothelial cells; 0.25 uM, 48 hours, CTRL 523) was 579, the “mean absorbance in the MTT assay” value (bEnd3 endothelial cells; 0.5 uM, 24 hours, CTRL 352) was 393 and the “mean absorbance in the MTT assay” value (bEnd3 endothelial cells; 0.5 uM, 48 hours, CTRL 523) was 545. For the same substance, the MTT relative absorption (DBTRG GBM cells [1]; 0.3 μM, 24 hours, Control 941) was 772, the MTT relative absorption (DBTRG GBM cells [1]; 0.3 μM, 48 hours, Control 1274) was 770 and the MTT relative absorption (DBTRG GBM cells [1]; 0.3 μM, 72 hours, Control 1667) was 1243. For the same substance, the MTT relative absorption (DBTRG GBM cells [1]; 0.5 μM, 24 hours, Control 941) was 773, the MTT relative absorption (DBTRG GBM cells [1]; 0.5 μM, 48 hours, Control 1274) was 623 and the MTT relative absorption (DBTRG GBM cells [1]; 0.5 μM, 72 hours, Control 1667) was 1022. For the same substance, the MTT relative absorption (DBTRG GBM cells [1]; 1.0 μM, 24 hours, Control 941) was 669, the MTT relative absorption (DBTRG GBM cells [1]; 1.0 μM, 48 hours, Control 1274) was 577 and the MTT relative absorption (DBTRG GBM cells [1]; 1.0 μM, 72 hours, Control 1667) was 712. For the same substance, the “percent … by flow cytometry” value (DBTRG GBM cells [2]; 1 h, Control 14) was 25%, the “percent … by flow cytometry” value (DBTRG GBM cells [2]; 3 h, Control 16) was 40% and the “percent … by flow cytometry” value (DBTRG GBM cells [2]; 6 h, Control 33) was 70%. For the same substance, the MTT relative absorption (U87 GBM cells [3]; 0.1 μM, 24 hours, CTRL 1200) was 1070, the MTT relative absorption (U87 GBM cells [3]; 0.1 μM, 48 hours, CTRL 1200) was 1167 and the MTT relative absorption (U87 GBM cells [3]; 0.1 μM, 72 hours, CTRL 1336) was 813. The MTT relative absorption (U87 GBM cells [3]; 0.25 μM, 24 hours, CTRL 1200) was 1069, the MTT relative absorption (U87 GBM cells [3]; 0.25 μM, 48 hours, CTRL 1200) was 1062 and the MTT relative absorption (U87 GBM cells [3]; 0.25 μM, 72 hours, CTRL 1336) was 650. For the same substance, the MTT relative absorption (U87 GBM cells [3]; 0.5 μM, 24 hours, CTRL 1200) was 1000, the MTT relative absorption (U87 GBM cells [3]; 0.5 μM, 48 hours, CTRL 1200) was 977 and the MTT relative absorption (U87 GBM cells [3]; 0.5 μM, 72 hours, CTRL 1336) was 650. For the same substance, the “percent of apoptotic cells” value (U87 GBM cells [4]; 1 hour, Control 10) was 67%, the “percent of apoptotic cells” value (U87 GBM cells [4]; 3 hours, Control 3) was 60% and the “percent of apoptotic cells” value (U87 GBM cells [4]; 6 hours, Control 14) was 70%. The “adhesion of human neutrophils to ICAM-1 (adherent cells), Resting (no stimulation)” value (human neutrophils; TAT-ICD 0.5 micromolar) was 12 ± 5 and the “adhesion of human neutrophils to ICAM-1 (adherent cells), Resting (no stimulation)” value (human neutrophils; TAT-ICD 1.0 micromolar) was 12 ± 5.
